Test results published in ChEMBL document CHEMBL3045868, “Synthesis and antibacterial activities of para-alkoxy phenyl--ketoaldehyde derivatives” (Med Chem Res, 2013).
Values after ≈ are worked out from the molar mass of the structure shown.

Columns and labels:
Format in all cases: functional
Staphylococcus aureus [1] = experiment: Antibacterial activity against Staphylococcus aureus clinical isolate 4 assessed as growth inhibition at pH 7 after 16 to 18 hr by NCCLS agar dilution method
Staphylococcus aureus [2] = experiment: Antibacterial activity against Staphylococcus aureus clinical isolate 3 assessed as growth inhibition at pH 7 after 16 to 18 hr by NCCLS agar dilution method
Staphylococcus aureus [3] = experiment: Antibacterial activity against Staphylococcus aureus clinical isolate 2 assessed as growth inhibition at pH 7 after 16 to 18 hr by NCCLS agar dilution method
Staphylococcus aureus [4] = experiment: Bactericidal activity against Staphylococcus aureus clinical isolate 5 after 24 hr; conditions: isolate 5, 24 h
Staphylococcus aureus [5] = experiment: Bactericidal activity against Staphylococcus aureus clinical isolate 3 after 24 hr; conditions: isolate 3, 24 h
Staphylococcus aureus [6] = experiment: Antibacterial activity against Staphylococcus aureus clinical isolate 10 assessed as growth inhibition after 16 to 18 hr by NCCLS agar dilution method
Staphylococcus aureus [7] = experiment: Antibacterial activity against Staphylococcus aureus clinical isolate 23 assessed as growth inhibition at pH 5 after 16 to 18 hr by NCCLS agar dilution method
Staphylococcus aureus [8] = experiment: Antibacterial activity against Staphylococcus aureus clinical isolate 1 assessed as growth inhibition at pH 9 after 16 to 18 hr by NCCLS agar dilution method
Staphylococcus aureus [9] = experiment: Antibacterial activity against Staphylococcus aureus clinical isolate 23 assessed as growth inhibition at pH 7 after 16 to 18 hr by NCCLS agar dilution method
Staphylococcus aureus [10] = experiment: Antibacterial activity against Staphylococcus aureus clinical isolate 14 assessed as growth inhibition at pH 7 after 16 to 18 hr by NCCLS agar dilution method
Staphylococcus aureus [11] = experiment: Antibacterial activity against Staphylococcus aureus clinical isolate 13 assessed as growth inhibition at pH 7 after 16 to 18 hr by NCCLS agar dilution method
Staphylococcus aureus [12] = experiment: Antibacterial activity against Staphylococcus aureus clinical isolate 9 assessed as growth inhibition at pH 7 after 16 to 18 hr by NCCLS agar dilution method
Staphylococcus aureus [13] = experiment: Antibacterial activity against Staphylococcus aureus clinical isolate 12 assessed as growth inhibition at pH 5 after 16 to 18 hr by NCCLS agar dilution method
Staphylococcus aureus [14] = experiment: Antibacterial activity against Staphylococcus aureus clinical isolate 8 assessed as growth inhibition at pH 5 after 16 to 18 hr by NCCLS agar dilution method
Staphylococcus aureus [15] = experiment: Antibacterial activity against Staphylococcus aureus clinical isolate 7 assessed as growth inhibition at pH 5 after 16 to 18 hr by NCCLS agar dilution method
Staphylococcus aureus [16] = experiment: Antibacterial activity against Staphylococcus aureus clinical isolate assessed as growth inhibition at pH 7 after 16 to 18 hr by NCCLS agar dilution method
Staphylococcus aureus [17] = experiment: Antibacterial activity against Staphylococcus aureus clinical isolate 24 assessed as growth inhibition at pH 9 after 16 to 18 hr by NCCLS agar dilution method
Staphylococcus aureus [18] = experiment: Antibacterial activity against Staphylococcus aureus clinical isolate 23 assessed as growth inhibition at pH 9 after 16 to 18 hr by NCCLS agar dilution method
Staphylococcus aureus [19] = experiment: Antibacterial activity against Staphylococcus aureus clinical isolate 22 assessed as growth inhibition at pH 9 after 16 to 18 hr by NCCLS agar dilution method
Staphylococcus aureus [20] = experiment: Antibacterial activity against Staphylococcus aureus clinical isolate 5 assessed as growth inhibition after 16 to 18 hr by NCCLS agar dilution method
Staphylococcus aureus [21] = experiment: Antibacterial activity against Staphylococcus aureus clinical isolate 2 assessed as growth inhibition after 16 to 18 hr by NCCLS agar dilution method
Staphylococcus aureus [22] = experiment: Antibacterial activity against Staphylococcus aureus clinical isolate 1 assessed as growth inhibition after 16 to 18 hr by NCCLS agar dilution method
Helicobacter pylori [23] = experiment: Antibacterial activity against Helicobacter pylori 05-14 assessed as growth inhibition after 16 to 18 hr NCCLS agar dilution method
Helicobacter pylori [24] = experiment: Antibacterial activity against Helicobacter pylori 05-12 assessed as growth inhibition after 16 to 18 hr NCCLS agar dilution method
Helicobacter pylori [25] = experiment: Antibacterial activity against Helicobacter pylori 05-2 assessed as growth inhibition after 16 to 18 hr NCCLS agar dilution method
Helicobacter pylori [26] = experiment: Antibacterial activity against Helicobacter pylori ATCC 11637 assessed as growth inhibition after 16 to 18 hr NCCLS agar dilution method
Pseudomonas aeruginosa = experiment: Antibacterial activity against Pseudomonas aeruginosa ATCC 27853 assessed as growth inhibition after 16 to 18 hr NCCLS agar dilution method
Helicobacter pylori [27] = experiment: Antibacterial activity against Helicobacter pylori 06-6 assessed as growth inhibition after 16 to 18 hr NCCLS agar dilution method
Helicobacter pylori [28] = experiment: Antibacterial activity against Helicobacter pylori 06-4 assessed as growth inhibition after 16 to 18 hr NCCLS agar dilution method
Helicobacter pylori [29] = experiment: Antibacterial activity against Helicobacter pylori 06-1 assessed as growth inhibition after 16 to 18 hr NCCLS agar dilution method
Helicobacter pylori [30] = experiment: Antibacterial activity against Helicobacter pylori 05-3 assessed as growth inhibition after 16 to 18 hr NCCLS agar dilution method
Staphylococcus aureus [31] = experiment: Antibacterial activity against Staphylococcus aureus clinical isolate 18 assessed as growth inhibition at pH 5 after 16 to 18 hr by NCCLS agar dilution method
Staphylococcus aureus [32] = experiment: Antibacterial activity against Staphylococcus aureus clinical isolate 14 assessed as growth inhibition at pH 5 after 16 to 18 hr by NCCLS agar dilution method
Helicobacter pylori [33] = experiment: Antibacterial activity against Helicobacter pylori assessed as growth inhibition after 16 to 18 hr NCCLS agar dilution method
Staphylococcus aureus [34] = experiment: Bactericidal activity against Staphylococcus aureus clinical isolate 10 after 24 hr; conditions: isolate 10, 24 h
Staphylococcus aureus [35] = experiment: Antibacterial activity against Staphylococcus aureus clinical isolate 6 assessed as growth inhibition at pH 5 after 16 to 18 hr by NCCLS agar dilution method
Staphylococcus aureus [36] = experiment: Antibacterial activity against Staphylococcus aureus clinical isolate 5 assessed as growth inhibition at pH 5 after 16 to 18 hr by NCCLS agar dilution method
Staphylococcus aureus [37] = experiment: Antibacterial activity against Staphylococcus aureus clinical isolate 4 assessed as growth inhibition at pH 5 after 16 to 18 hr by NCCLS agar dilution method
Staphylococcus aureus [38] = experiment: Bactericidal activity against methicillin-resistant Staphylococcus aureus isolate 5 after 24 hr; conditions: isolate 5, 24 h
Staphylococcus aureus [39] = experiment: Bactericidal activity against methicillin-resistant Staphylococcus aureus isolate 4 after 24 hr; conditions: isolate 4, 24 h
Staphylococcus aureus [40] = experiment: Bactericidal activity against methicillin-resistant Staphylococcus aureus isolate 3 after 24 hr; conditions: isolate 3, 24 h
Staphylococcus aureus [41] = experiment: Antibacterial activity against methicillin-resistant Staphylococcus aureus isolate 4 assessed as growth inhibition after 16 to 18 hr by NCCLS agar dilution method
Staphylococcus aureus [42] = experiment: Antibacterial activity against methicillin-resistant Staphylococcus aureus isolate 1 assessed as growth inhibition after 16 to 18 hr by NCCLS agar dilution method
Staphylococcus aureus [43] = experiment: Bactericidal activity against Staphylococcus aureus clinical isolate after 24 hr

CO/N=C/CC(=O)c1ccc(OC)cc1
MIC (Staphylococcus aureus [1]): 16 µg/mL (≈ 77.2 µM)
MIC (Staphylococcus aureus [2]): 16 µg/mL (≈ 77.2 µM)
MIC (Staphylococcus aureus [3]): 16 µg/mL (≈ 77.2 µM)
MBC (Staphylococcus aureus [4]): 64 µg/mL (≈ 309 µM)
MBC (Staphylococcus aureus [5]): 64 µg/mL (≈ 309 µM)
MIC (Staphylococcus aureus [6]): 16 µg/mL (≈ 77.2 µM)
MIC (Staphylococcus aureus [7]): 16 µg/mL (≈ 77.2 µM)
MIC (Staphylococcus aureus [8]): 16 µg/mL (≈ 77.2 µM)
MIC (Staphylococcus aureus [9]): 16 µg/mL (≈ 77.2 µM)
MIC (Staphylococcus aureus [10]): 16 µg/mL (≈ 77.2 µM)
MIC (Staphylococcus aureus [11]): 8 µg/mL (≈ 38.6 µM)
MIC (Staphylococcus aureus [12]): 32 µg/mL (≈ 154 µM)
MIC (Staphylococcus aureus [13]): 16 µg/mL (≈ 77.2 µM)
MIC (Staphylococcus aureus [14]): 32 µg/mL (≈ 154 µM)
MIC (Staphylococcus aureus [15]): 16 µg/mL (≈ 77.2 µM)
MIC50 (Staphylococcus aureus [16]): 16 µg/mL (≈ 77.2 µM)
MIC90 (Staphylococcus aureus [16]): 32 µg/mL (≈ 154 µM)
MIC (Staphylococcus aureus [17]): 8 µg/mL (≈ 38.6 µM)
MIC (Staphylococcus aureus [18]): 8 µg/mL (≈ 38.6 µM)
MIC (Staphylococcus aureus [19]): 8 µg/mL (≈ 38.6 µM)
MIC (Staphylococcus aureus [20]): 8 µg/mL (≈ 38.6 µM)
MIC (Staphylococcus aureus [21]): 16 µg/mL (≈ 77.2 µM)
MIC (Staphylococcus aureus [22]): 16 µg/mL (≈ 77.2 µM)
MIC (Helicobacter pylori [23]): 16 µg/mL (≈ 77.2 µM)
MIC (Helicobacter pylori [24]): > 128 µg/mL
MIC (Helicobacter pylori [25]): 16 µg/mL (≈ 77.2 µM)
MIC (Helicobacter pylori [26]): 32 µg/mL (≈ 154 µM)
MIC (Pseudomonas aeruginosa): > 64 µg/mL
MIC (Helicobacter pylori [27]): 16 µg/mL (≈ 77.2 µM)
MIC (Helicobacter pylori [28]): 32 µg/mL (≈ 154 µM)
MIC (Helicobacter pylori [29]): 16 µg/mL (≈ 77.2 µM)
MIC (Helicobacter pylori [30]): 16 µg/mL (≈ 77.2 µM)
MIC (Staphylococcus aureus [31]): 32 µg/mL (≈ 154 µM)
MIC (Staphylococcus aureus [32]): 32 µg/mL (≈ 154 µM)
MIC50 (Helicobacter pylori [33]): 32 µg/mL (≈ 154 µM)
MIC90 (Helicobacter pylori [33]): 32 µg/mL (≈ 154 µM)
MBC (Staphylococcus aureus [34]): > 128 µg/mL
MIC (Staphylococcus aureus [35]): 64 µg/mL (≈ 309 µM)
MIC (Staphylococcus aureus [36]): 16 µg/mL (≈ 77.2 µM)
MIC (Staphylococcus aureus [37]): 64 µg/mL (≈ 309 µM)
MBC (Staphylococcus aureus [38]): 256 µg/mL (≈ 1240 µM)
MBC (Staphylococcus aureus [39]): 256 µg/mL (≈ 1240 µM)
MBC (Staphylococcus aureus [40]): 256 µg/mL (≈ 1240 µM)
MIC (Staphylococcus aureus [41]): 8 µg/mL (≈ 38.6 µM)
MIC (Staphylococcus aureus [42]): 8 µg/mL (≈ 38.6 µM)
MBC50 (60.1); MBC90 (60.2) (Staphylococcus aureus [43]; read-out: MIC50): 64 µg/mL (≈ 309 µM)
MBC50 (60.1); MBC90 (60.2) (Staphylococcus aureus [43]; read-out: MIC90): 128 µg/mL (≈ 618 µM)
